Holding throughout (experiment): NCI-60 cell line screen, 48 h
Test [1] has as its system MOLT-4.
For test [2], the system named is SW-620.
Test [3] deals with Malme-3M.
For test [4], the system named is CAKI-1.
The subject of test [5] is SK-OV-3.
Test [6] has as its system IGROV-1.
In test [7] the test system is HOP-92.
Test [8] deals with SF-295.
Test [9] deals with HCT-116.
Test [10] relates to OVCAR-8.
The test system of test [11] is OVCAR-5.
Test [12] relates to U-251.
The subject of test [13] is RXF 393.
Test [14] deals with UACC-62.
The subject of test [15] is HL-60.
For test [16], the system named is COLO 205.
For test [17], the system named is OVCAR-4.
For test [18], the system named is HOP-62.
Test [19] concerns MCF7.

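48-hour exposure; five concentrations; linearly interpolated endpoints. GI50 marks 50% less growth.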 Activity calls are given as the source filed them. Cut-off read from the data, not from the text of the source: active = GI50 up to about 1.1 µM and inactive = higher.

Consider `COc1ccc(NC(=O)CC/C(CC(=O)c2ccccc2Cl)=N\Nc2nnc(C)n2N)cc1`, for which the GI50 in test [1], in test [2], in test [3], in test [4], in test [5] and in test [6] was > 100 µM (inactive) each time. The GI50 in test [7], in [8], in test [9], in test [10], in [11] and in test [12] was > 100 µM (inactive) throughout. Besides, the GI50 in test [13], in [14], in test [15], in test [16] and in [17] was > 100 µM (inactive) in each case.
In the case of `Cc1ccc([N+](=O)[O-])cc1NC(=O)C(=O)C(C(=O)c1ccccc1F)C1OC(=O)c2ccccc21` (configuration not stated), the GI50 is 36.1 µM (inactive) in test [1]; 40.7 µM (inactive) in test [18]; 35.1 µM (inactive) in test [2]; 53.8 µM (inactive) in [4]; 46.5 µM (inactive) in [5]; 59.7 µM (inactive) in [6]. Besides, the GI50 in [7] is > 100 µM (inactive); in test [8] it was 42.6 µM (inactive); in test [9], 31.5 µM (inactive); in test [10], 25.2 µM (inactive); in test [11], 61.4 µM (inactive); in test [12] it was 18.1 µM (inactive). Besides, the GI50 is 20.5 µM (inactive) in test [13]; 33.7 µM (inactive) in test [14]; 26.9 µM (inactive) in test [15]; 38.9 µM (inactive) in [16]; 65 µM (inactive) in test [17].
Consider `COC1/C=C/C(C)C(C(C)C(OC)C(C)CCC(=O)C(C)C(C/C=C/N(C)C=O)OC)OC(=O)/C=C/C=C(\C)CC(OC)CC2=CC(=O)O[C@H](C2)C(C)C(OC)CC(OC)/C=C/C(C)C(OC)C1` (some centres not stated), for which the GI50 in test [1] is < 0.005 µM (active); in test [18], < 0.005 µM (active); in test [2], 0.00766 µM (active); in test [3] it was 0.00966 µM (active); in [4], < 0.005 µM (active); in test [5], 0.00955 µM (active). In addition, the GI50 in [6] was 0.0113 µM (active); in test [7], 0.0142 µM (active); in test [8], 0.00619 µM (active); in test [9], < 0.005 µM (active); in test [10], 0.0224 µM (active); in [13], 0.0148 µM (active). Besides, the GI50 in test [14] was 0.00752 µM (active); in [19] it was 0.0292 µM (active); in test [17], 0.0984 µM (active).
Consider `CCOC(=O)Nc1ccc(S(=O)(=O)NCCCl)cc1.CCOC(=O)Nc1ccc(S(=O)(=O)NCCCl)cc1.O=C(O)c1ccc(/N=N/Cl)cc1O`, for which the GI50 in test [1], in test [18], in test [2], in test [3], in test [4] and in [5] was > 100 µM (inactive) each time. Besides, the GI50 in test [6], in test [7], in test [8], in test [10], in test [11] and in test [12] was > 100 µM (inactive) in each case. The GI50 in test [14], in [15], in test [16] and in test [17] was > 100 µM (inactive) in each case.
For the molecule `COc1nc2[nH]ccc2c(=O)[nH]1`, the GI50 in test [1], in [2], in test [3], in test [4], in test [6] and in test [7] was > 100 µM (inactive) throughout. Further, the GI50 in test [8], in test [9], in [10], in [11], in [12] and in test [13] was > 100 µM (inactive) each time. In addition, the GI50 in test [15], in test [16] and in [17] was > 100 µM (inactive) in each case.
For `CCN(CC)CCCC(C)Nc1cc(-c2ccccc2)nc2cc(OC)ccc12` (configuration not stated), the GI50 in [1] was 2.14 µM (inactive); in test [18] it was 5.25 µM (inactive); in [3] it was 10.4 µM (inactive); in test [5], 16.3 µM (inactive); in test [6], 13.2 µM (inactive); in [7] it was 2.23 µM (inactive). Moreover, the GI50 in [8] was 8.79 µM (inactive); in [9], 2.84 µM (inactive); in test [11], 2.48 µM (inactive); in test [12] it was 4.22 µM (inactive); in test [14], 17.6 µM (inactive); in [15], 2.55 µM (inactive). Further, the GI50 in test [16] was 2.91 µM (inactive); in [17], 4.88 µM (inactive).
As to `CN(C)c1n/c(=N/c2ccc(/N=c3\nc(N(C)C)ss3)cc2)ss1`, the GI50 in [1] was 8.49 µM (inactive); in test [18] it was > 100 µM (inactive); in [2], > 40.7 µM (inactive); in [3], 22.5 µM (inactive); in test [4], > 44.3 µM (inactive); in test [5], > 100 µM (inactive). Moreover, the GI50 is 27.5 µM (inactive) in test [6]; > 100 µM (inactive) in test [7]; 39.8 µM (inactive) in test [8]; 15.1 µM (inactive) in test [9]; 16.7 µM (inactive) in test [10]; > 100 µM (inactive) in test [11]. The GI50 in [12] was 29.9 µM (inactive); in test [13] it was 16.5 µM (inactive); in test [14] it was 3.38 µM (inactive); in [15], 12.4 µM (inactive); in test [16], 28.2 µM (inactive); in test [17], 20 µM (inactive).
Regarding `OCC1OC(n2ccc3cnccc32)CC1O` (configuration not stated), the GI50 in test [1], in test [18], in test [2], in test [3], in [4] and in test [5] was > 100 µM (inactive) each time. The GI50 in test [6], in test [7], in [8], in test [9], in [10] and in test [11] was > 100 µM (inactive) each time. Also, the GI50 in test [12], in test [14], in [15], in test [16] and in test [17] was > 100 µM (inactive) throughout.
In the case of `CC1(C)COC2C(N(Cc3ccccc3)Cc3ccccc3)C(=O)N21` (configuration not stated), the GI50 in [1] was 25.9 µM (inactive); in test [18], 36.9 µM (inactive); in [2], 35.9 µM (inactive); in [3] it was 38.6 µM (inactive); in [4] it was 39.2 µM (inactive); in [5], 24.9 µM (inactive). In addition, the GI50 in [6] is 41.9 µM (inactive); in test [7] it was 29.3 µM (inactive); in test [8], 32.1 µM (inactive); in test [9], 33.4 µM (inactive); in [10] it was 32.1 µM (inactive); in test [11] it was > 100 µM (inactive). For the same molecule, the GI50 in test [12] is 26.3 µM (inactive); in test [13], 19.3 µM (inactive); in test [14], 25.1 µM (inactive); in test [15] it was 22.3 µM (inactive); in [16], 25.1 µM (inactive); in test [17], 27.9 µM (inactive).

Source of the values: ChEMBL document CHEMBL1201862, “PubChem BioAssay data set” (2004).
